Experimental data: patent US20250248979A1, “NOVEL GPX4 INHIBITORS AND USES THEREOF” (THE TRUSTEES OF COLUMBIA UNIVERSITY IN THE CITY OF NEW YORK, priority 2022, published 2025)
In brackets after ≈: the same amount, converted by molar mass.

tested on: not listed separately; experiment: Kinetic aqueous solubility; conditions: aqueous solubility; Table 9

**Q.** For `Cn1nc(C(=O)NC(C)(C)COC(=O)CCl)c2ccccc21` [QW-312], which “Solubility” value is on record?
**A.** 98 µM (≈ 31.7 µg/mL)

**Q.** With `CC(C)(COC(=O)CCl)NC(=O)c1n[nH]c2cc(Br)ccc12` [QW-313] as the compound, how does the “Solubility” value read?
**A.** 47 µM (≈ 18.3 µg/mL)

**Q.** For `CC(C)(COC(=O)CCl)NC(=O)c1c[nH]c2cc(Br)ccc12` [QW-316], which “Solubility” value is on record?
**A.** 71 µM (≈ 27.5 µg/mL)

tested on: HT-1080 cells; experiment: Cellular dose response assay, HT-1080 with and without Fer-1; format: cell-based, human; conditions: compounds alone; Table 7; read-out: IC50 (uM) HT1080^a
Outline: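 Following overnight attachment (1500 cells per well), triplicate wells got 2-fold serial dilutions across 12 points, with or without Fer-1 for HT-1080, at 0.4% final DMSO. After 48 h incubation, luminescent ATP-based viability (CellTiter-Glo) was recorded.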

**Q.** With `Cn1nc(C(=O)NC(C)(C)COC(=O)CCl)c2ccccc21` [QW-312] as the compound, how does the IC50 read?
**A.** 5.4 µM

**Q.** For `CC(C)(COC(=O)CCl)NC(=O)c1n[nH]c2cc(Br)ccc12` [QW-313], which IC50 is on record?
**A.** 20.4 µM

same assay, conditions: ferroptosis selectivity, IC50 with Fer-1 / IC50

**Q.** Which Selectivity does the source give for `CC(C)(NC(=O)c1nn(Cc2ccc(Cl)cc2)c2cc(-c3ccc(N4CCOCC4)c(Cl)c3)ccc12)C(C)(C)OC(=O)CCl` [QW-811] here?
**A.** 45.4

same assay, conditions: with Fer-1; Table 10; read-out: IC50 (μM) HT1080 + Fer-1

**Q.** For `CC(C)(NC(=O)c1nn(Cc2ccc(Cl)cc2)c2cc(-c3ccc(N4CCOCC4)c(Cl)c3)ccc12)C(C)(C)OC(=O)CCl` [QW-811], which IC50 is on record?
**A.** 12.7 µM

same assay, conditions: with fer-1; Table 7; read-out: IC50 (uM) HT1080^b

**Q.** With `Cn1nc(C(=O)NC(C)(C)COC(=O)CCl)c2ccccc21` [QW-312] as the compound, how does the IC50 read?
**A.** 76.3 µM

**Q.** For `CC(C)(COC(=O)CCl)NC(=O)c1n[nH]c2cc(Br)ccc12` [QW-313], which IC50 is on record?
**A.** 58.8 µM

same assay, conditions: without Fer-1; Table 10; read-out: IC50 (μM) HT1080

**Q.** Which IC50 does the source give for `CC(C)(NC(=O)c1nn(Cc2ccc(Cl)cc2)c2cc(-c3ccc(N4CCOCC4)c(Cl)c3)ccc12)C(C)(C)OC(=O)CCl` [QW-811] here?
**A.** 0.28 µM

tested on: DTP cells derived from PC9; experiment: Drug-tolerant persister cell model, DTP cells; conditions: not given

**Q.** For `CC(C)(NC(=O)c1nn(Cc2ccc(Cl)cc2)c2cc(-c3ccc(N4CCOCC4)c(Cl)c3)ccc12)C(C)(C)OC(=O)CCl` [QW-811], which “selectivity for DTPs vs PC9 parental cells, result in words” value is on record?
**A.** selective and similar or stronger cytotoxicity to DTP cells

same assay, conditions: dose 1.0 μM; 48 hours

**Q.** With `CC(C)(NC(=O)c1nn(Cc2ccc(Cl)cc2)c2cc(-c3ccc(N4CCOCC4)c(Cl)c3)ccc12)C(C)(C)OC(=O)CCl` [QW-811] as the compound, how does the “% Viability Persister” value read?
**A.** 93.00%

same assay, conditions: dose 10.0 μM; 48 hours

**Q.** For `CC(C)(NC(=O)c1nn(Cc2ccc(Cl)cc2)c2cc(-c3ccc(N4CCOCC4)c(Cl)c3)ccc12)C(C)(C)OC(=O)CCl` [QW-811], which “% Viability Persister” value is on record?
**A.** 4.75%

tested on: Huh7 cells; experiment: Cellular dose response assay, Huh7; format: cell-based, human; conditions: compounds alone; Table 7; read-out: IC50 (uM) Huh7^a
Description: (§1) HT-1080 (human [Homo sapiens] […] fibrosarcoma), A-673 (human [Homo sapiens] […] Ewing's sarcoma), and SK-HEP-1 (human [Homo sapiens] […] hepatic adenocarcinoma), cells were obtained from ATCC. Huh7 (human [Homo sapiens] […] hepatocellular carcinoma), HLF (human [Homo sapiens] […] hepatocellular carcinoma), HepG2 (human [Homo sapiens] […] hepatocellular carcinoma), cells were obtained from the Cancer Cell Bank at Columbia University Irving Medical Center. HT-1080, A-673, Huh-7, and HLF cells were grown in Dulbecco's Modified Eagle Medium (DMEM) supplemented with 10% heat inactivated fetal bovine serum (HI-FBS), 1% non-essential amino acids, and 1% penicillin streptomycin. HepG2 and SK-HEP-1 cells were grown in Eagle's Minimum Essential Medium (EMEM) supplemented with 10% HI-FBS, and 1% penicillin-streptomycin. All cells were cultured at 37° C. and 5% CO2.
(§2) HT-1080, HepG2, Huh7, HLF, and SK-HEP-1 cells were seeded into opaque white 384-well plates at 1500 cells per well then incubated at 37° C. with 5% CO2 overnight. The next day, compounds of interest were dissolved in DMSO and 12-point 2-fold dilution series were prepared with and without Fer-1. Cells were treated in triplicate (final DMSO concentration of 0.4% in all wells, including DMSO-only control wells) and incubated for a further 48 hours at 37° C. and 5% CO2. Cell viability was evaluated using CellTiter-Glo (Promega G7573) and luminescence was recorded on a Victor 5 plate reader. Data were analyzed in GraphPad Prism 9 and error bars represent standard deviation values for three technical replicates in a representative experiment.

**Q.** Which IC50 does the source give for `Cn1nc(C(=O)NC(C)(C)COC(=O)CCl)c2ccccc21` [QW-312] here?
**A.** 4.2 µM

**Q.** With `CC(C)(COC(=O)CCl)NC(=O)c1n[nH]c2cc(Br)ccc12` [QW-313] as the compound, how does the IC50 read?
**A.** 17 µM

same assay, conditions: with fer-1; Table 7; read-out: IC50 (uM) Huh7^b

**Q.** Which IC50 does the source give for `Cn1nc(C(=O)NC(C)(C)COC(=O)CCl)c2ccccc21` [QW-312] here?
**A.** 122 µM

**Q.** With `CC(C)(COC(=O)CCl)NC(=O)c1n[nH]c2cc(Br)ccc12` [QW-313] as the compound, how does the IC50 read?
**A.** 58.2 µM

tested on: HLF cells; experiment: Cellular dose response assay, HLF; format: cell-based, human; conditions: compounds alone; Table 7; read-out: IC50 (uM) HLF^a
Description: as §1, §2

**Q.** With `Cn1nc(C(=O)NC(C)(C)COC(=O)CCl)c2ccccc21` [QW-312] as the compound, how does the IC50 read?
**A.** 2.5 µM

same assay, conditions: with fer-1; Table 7; read-out: IC50 (uM) HLF^b

**Q.** With `Cn1nc(C(=O)NC(C)(C)COC(=O)CCl)c2ccccc21` [QW-312] as the compound, how does the IC50 read?
**A.** 58.1 µM

target: T1, GPX4 (Homo sapiens, UniProt P36969); experiment: GPX4 activity assay in cell lysates (NADPH-coupled); format: biochemical; design: endogenous in cells; host or cells: A-673 cell lysate; conditions: 2.5 μM; 4th generation
T1 sequence (P36969 1-170 isoform P36969-2): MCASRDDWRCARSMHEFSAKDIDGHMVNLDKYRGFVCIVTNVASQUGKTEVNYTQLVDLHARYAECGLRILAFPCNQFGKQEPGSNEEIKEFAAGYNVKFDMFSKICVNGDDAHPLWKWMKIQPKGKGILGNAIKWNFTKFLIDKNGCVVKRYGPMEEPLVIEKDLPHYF
Outline: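 Native GPX4 in lysates of A-673 cells grown with 20 nM sodium selenite; lysate preincubated with compound 45 min at 37 °C in pH 8.0 buffer with 3 mM GSH, 0.5 mM NADPH and glutathione reductase. Reaction started with phosphatidylcholine hydroperoxide; NADPH consumption followed at 340 nm over 25 min; triplicates.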

**Q.** With `CC(C)(NC(=O)c1nn(Cc2ccc(Cl)cc2)c2cc(-c3ccc(N4CCOCC4)c(Cl)c3)ccc12)C(C)(C)OC(=O)CCl` [QW-811] as the compound, how does the “GPX4% inhibition at 2.5 μM” value read?
**A.** 47.4 ± 8.9%

same assay, conditions: 20 μM; generation 2

**Q.** For `Cn1nc(C(=O)NC(C)(C)COC(=O)CCl)c2ccccc21` [QW-312], which “GPX4% inhibition at 20 (μM)” value is on record?
**A.** 72.5 ± 6.7%

**Q.** Which “GPX4% inhibition at 20 (μM)” value does the source give for `CC(C)(COC(=O)CCl)NC(=O)c1n[nH]c2cc(Br)ccc12` [QW-313] here?
**A.** 53.8 ± 12.1%

same assay, conditions: 200 μM

**Q.** With `Cn1nc(C(=O)NC(C)(C)COC(=O)CCl)c2ccccc21` [QW-312] as the compound, how does the GPX4 inhibition read?
**A.** complete inhibition

**Q.** Which GPX4 inhibition does the source give for `CC(C)(COC(=O)CCl)NC(=O)c1n[nH]c2cc(Br)ccc12` [QW-313] here?
**A.** complete inhibition

same assay, conditions: 200 μM; generation 1; mean ± s.d., n = 3

**Q.** Which “GPX4% inhibition at 200 (μM)” value does the source give for `CC(C)(COC(=O)CCl)NC(=O)c1c[nH]c2cc(Br)ccc12` [QW-316] here?
**A.** 87.2 ± 9.2%

same assay, conditions: 200 μM; generation 2

**Q.** For `Cn1nc(C(=O)NC(C)(C)COC(=O)CCl)c2ccccc21` [QW-312], which “GPX4% inhibition at 200 (μM)” value is on record?
**A.** 95.8 ± 4.0%

**Q.** For `CC(C)(COC(=O)CCl)NC(=O)c1n[nH]c2cc(Br)ccc12` [QW-313], which “GPX4% inhibition at 200 (μM)” value is on record?
**A.** 97.6 ± 2.5%

tested on: not listed separately; experiment: in vitro; format: in vitro ADME, human; conditions: human, microsomes
Method: (§3) […]. The incubation timepoints measured were 0, 5, 10, 15, 30, and 45 minutes. All samples were prepared in duplicate and analyzed by LC-MS/MS.

**Q.** Which “Microsome Stability t1/2 (min) human” value does the source give for `Cn1nc(C(=O)NC(C)(C)COC(=O)CCl)c2ccccc21` [QW-312] here?
**A.** 2.9 min

**Q.** Which “Microsome Stability t1/2 (min) human” value does the source give for `CC(C)(COC(=O)CCl)NC(=O)c1n[nH]c2cc(Br)ccc12` [QW-313] here?
**A.** 9.7 min

**Q.** For `CC(C)(COC(=O)CCl)NC(=O)c1c[nH]c2cc(Br)ccc12` [QW-316], which “Microsome Stability t1/2 (min) human” value is on record?
**A.** 24 min

same assay, conditions: pH 7.4; human liver microsomes; read-out: Microsome Stability t1/2 (min) human

**Q.** With `C[C@]12CC[C@H]3[C@@H](CCC4=CC(=O)CC[C@@]43C)[C@@H]1CC[C@@H]2O` [Testosterone, reference compound] as the compound, how does the half-life read?
**A.** 9.5 min

tested on: SK-HEP-1 cells; experiment: Cellular dose response assay, SK-HEP-1; format: cell-based, human; conditions: compounds alone; Table 7; read-out: IC50 (uM) SKHEP1^a
Description: as §1, §2

**Q.** For `Cn1nc(C(=O)NC(C)(C)COC(=O)CCl)c2ccccc21` [QW-312], which IC50 is on record?
**A.** 28.4 µM

**Q.** For `CC(C)(COC(=O)CCl)NC(=O)c1n[nH]c2cc(Br)ccc12` [QW-313], which IC50 is on record?
**A.** 47 µM

same assay, conditions: with fer-1; Table 7; read-out: IC50 (uM) SKHEP1^b

**Q.** With `Cn1nc(C(=O)NC(C)(C)COC(=O)CCl)c2ccccc21` [QW-312] as the compound, how does the IC50 read?
**A.** 202 µM

**Q.** With `CC(C)(COC(=O)CCl)NC(=O)c1n[nH]c2cc(Br)ccc12` [QW-313] as the compound, how does the IC50 read?
**A.** 63.7 µM

tested on: HepG2 cells; experiment: Cellular dose response assay, HepG2; format: cell-based, human; conditions: compounds alone; Table 7; read-out: IC50 (uM) HEPG2^a
Description: as §1, §2

**Q.** For `Cn1nc(C(=O)NC(C)(C)COC(=O)CCl)c2ccccc21` [QW-312], which IC50 is on record?
**A.** 26.2 µM

**Q.** With `CC(C)(COC(=O)CCl)NC(=O)c1n[nH]c2cc(Br)ccc12` [QW-313] as the compound, how does the IC50 read?
**A.** 12.8 µM

same assay, conditions: with fer-1; Table 7; read-out: IC50 (uM) HEPG2^b

**Q.** Which IC50 does the source give for `Cn1nc(C(=O)NC(C)(C)COC(=O)CCl)c2ccccc21` [QW-312] here?
**A.** 180 µM

**Q.** With `CC(C)(COC(=O)CCl)NC(=O)c1n[nH]c2cc(Br)ccc12` [QW-313] as the compound, how does the IC50 read?
**A.** 63.1 µM

tested on: not listed separately; experiment: in vitro; format: in vitro ADME, mouse; conditions: mouse liver microsomes
Method: as §3

**Q.** For `C[C@]12CC[C@H]3[C@@H](CCC4=CC(=O)CC[C@@]43C)[C@@H]1CC[C@@H]2O` [Testosterone, reference compound], which “Microsome Stability t1/2 (min) mouse” value is on record?
**A.** 5.3 min

same assay, conditions: mouse, microsomes

**Q.** With `Cn1nc(C(=O)NC(C)(C)COC(=O)CCl)c2ccccc21` [QW-312] as the compound, how does the “Microsome Stability t1/2 (min) mouse” value read?
**A.** 1.7 min

**Q.** With `CC(C)(COC(=O)CCl)NC(=O)c1n[nH]c2cc(Br)ccc12` [QW-313] as the compound, how does the “Microsome Stability t1/2 (min) mouse” value read?
**A.** 12.1 min

**Q.** For `CC(C)(COC(=O)CCl)NC(=O)c1c[nH]c2cc(Br)ccc12` [QW-316], which “Microsome Stability t1/2 (min) mouse” value is on record?
**A.** 6 min
